#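 Following 48 hours of exposure in 96-well plates, responses at five concentrations were used to interpolate endpoints linearly. The concentration for 50% growth inhibition is given as GI50. The concentration for full growth arrest is given as TGI.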
# Legend:
# Assay in all cases: inhibition of tumour cell growth, NCI panel, 48 h
# [1] = test system: A549 NSCLC
# [2] = test system: NCI-H226 lung
# [3] = test system: K-562 leukemia
# [4] = test system: ACHN renal
# [5] = test system: UACC-257 melanoma
# [6] = test system: NCI-H522 lung
# [7] = test system: HOP-92 NSCLC
# [8] = test system: OVCAR-8 ovarian
# [9] = test system: KM12 colon
# [10] = test system: HL-60(TB) leukemia
# [11] = test system: HCC-2998 colon
# [12] = test system: EKVX NSCLC
# [13] = test system: CCRF-CEM leukemia
# [14] = test system: MDA-MB-231 breast
# [15] = test system: A498 renal
# [16] = test system: SF-539 CNS
# [17] = test system: BT-549 breast
# [18] = test system: IGROV1 ovarian
# [19] = test system: RPMI-8226 leukemia
# [20] = test system: SF-268 CNS
# [21] = test system: NCI-H460 lung
# [22] = test system: SF-295 CNS
# [23] = test system: SR leukemia
# [24] = test system: UO-31 renal
# [25] = test system: PC-3 prostate
# [26] = test system: HS 578T breast
# [27] = test system: HCT-15 colon
# [28] = test system: MDA-MB-435
# [29] = test system: OVCAR-5 ovarian
# [30] = test system: SK-MEL-2 melanoma
# [31] = test system: SN12C renal
# [32] = test system: SK-OV-3 ovarian
# [33] = test system: HT29 colon
# [34] = test system: COLO 205 colon
# [35] = test system: HOP-62 NSCLC
# [36] = test system: DU-145 prostate
# [37] = test system: RXF 393 renal
# [38] = test system: OVCAR-4 ovarian
# [39] = test system: NCI/ADR-RES ovarian
# [40] = test system: SNB-75 CNS
# [41] = test system: MCF7 breast
# [42] = test system: UACC-62 melanoma
# [43] = test system: MALME-3M melanoma
# [44] = test system: LOX IMVI melanoma
# [45] = test system: U251 CNS
# [46] = test system: TK-10 renal
# [47] = test system: SW-620 colon
# [48] = test system: 786-0 renal
# [49] = test system: NCI-H23 lung
# [50] = test system: SNB-19 CNS
# [51] = test system: SK-MEL-5 melanoma
# [52] = test system: M14 melanoma
# [53] = test system: MOLT-4 leukemia
# [54] = test system: OVCAR-3 ovarian
# [55] = test system: HCT-116 colon
# [56] = test system: SK-MEL-28 melanoma
# [57] = test system: CAKI-1 renal
# [58] = test system: T-47D breast
smiles,measurement,setting,value
C=C1C(=O)O[C@H]2[C@H]1CC/C(COC(=O)c1ccccc1)=C\CC[C@@]1(C)O[C@@H]21,GI50,[1],3330 nM
same,TGI,[1],13 µM
same,GI50,[2],1620 nM
same,TGI,[2],3.74 µM
same,GI50,[3],451 nM
same,TGI,[3],13 µM
same,GI50,[4],1370 nM
same,TGI,[4],2860 nM
same,GI50,[5],1510 nM
same,TGI,[5],3.37 µM
same,GI50,[6],1060 nM
same,TGI,[6],2790 nM
same,GI50,[7],984 nM
same,TGI,[7],2610 nM
same,GI50,[8],2280 nM
same,TGI,[8],9.28 µM
same,GI50,[9],2570 nM
same,TGI,[9],8.42 µM
same,GI50,[10],981 nM
same,TGI,[10],3.95 µM
same,GI50,[11],2350 nM
same,TGI,[11],4.95 µM
same,GI50,[12],1850 nM
same,TGI,[12],4.46 µM
same,GI50,[13],281 nM
same,TGI,[13],1300 nM
same,GI50,[14],1690 nM
same,TGI,[14],4.36 µM
same,GI50,[15],16.8 µM
same,TGI,[15],30.8 µM
same,GI50,[16],662 nM
same,TGI,[16],2100 nM
same,GI50,[17],1230 nM
same,TGI,[17],2940 nM
same,GI50,[18],787 nM
same,TGI,[18],2660 nM
same,GI50,[19],375 nM
same,TGI,[19],2.44 µM
same,GI50,[20],1560 nM
same,TGI,[20],3.47 µM
same,GI50,[21],2220 nM
same,TGI,[21],6.16 µM
same,GI50,[22],3.83 µM
same,TGI,[22],16 µM
same,GI50,[23],350 nM
same,TGI,[23],86.8 µM
same,GI50,[24],1200 nM
same,TGI,[24],2490 nM
same,GI50,[25],1800 nM
same,TGI,[25],4.34 µM
same,GI50,[26],2560 nM
same,TGI,[26],14.8 µM
same,GI50,[27],800 nM
same,TGI,[27],2300 nM
same,GI50,[28],1340 nM
same,TGI,[28],3.24 µM
same,GI50,[29],2000 nM
same,TGI,[29],5.36 µM
same,GI50,[30],1940 nM
same,TGI,[30],4.02 µM
same,GI50,[31],1390 nM
same,TGI,[31],3.26 µM
same,GI50,[32],11.8 µM
same,TGI,[32],24 µM
same,GI50,[33],412 nM
same,TGI,[33],2100 nM
same,GI50,[34],1370 nM
same,TGI,[34],3140 nM
same,GI50,[35],2960 nM
same,TGI,[35],14.1 µM
same,GI50,[36],1060 nM
same,TGI,[36],2290 nM
same,GI50,[37],1140 nM
same,TGI,[37],2580 nM
same,GI50,[38],2640 nM
same,TGI,[38],9.87 µM
same,GI50,[39],2670 nM
same,TGI,[39],9.05 µM
same,GI50,[40],5.7 µM
same,TGI,[40],18.7 µM
same,GI50,[41],497 nM
same,TGI,[41],2040 nM
same,GI50,[42],1440 nM
same,TGI,[42],3130 nM
same,GI50,[43],1820 nM
same,TGI,[43],3.86 µM
same,GI50,[44],1320 nM
same,TGI,[44],2740 nM
same,GI50,[45],1670 nM
same,TGI,[45],3.37 µM
same,GI50,[46],2030 nM
same,TGI,[46],3.98 µM
same,GI50,[47],407 nM
same,TGI,[47],1750 nM
same,GI50,[48],1460 nM
same,TGI,[48],3.08 µM
same,GI50,[49],1820 nM
same,TGI,[49],4.16 µM
same,GI50,[50],2.61 µM
same,TGI,[50],11.6 µM
same,GI50,[51],1630 nM
same,TGI,[51],3.03 µM
same,GI50,[52],1320 nM
same,TGI,[52],3.27 µM
same,GI50,[53],2140 nM
same,TGI,[53],7.57 µM
same,GI50,[54],482 nM
same,TGI,[54],1740 nM
same,GI50,[55],469 nM
same,TGI,[55],1820 nM
same,GI50,[56],1740 nM
same,TGI,[56],3.71 µM
C=C1C(=O)O[C@H]2[C@H]1CC/C(Cn1cc(-c3cc(C)c(C)cc3C)nn1)=C\CC[C@@]1(C)O[C@@H]21,GI50,[1],1730 nM
same,TGI,[1],4.31 µM
same,GI50,[2],1460 nM
same,TGI,[2],3.07 µM
same,GI50,[3],1390 nM
same,TGI,[3],6.24 µM
same,GI50,[4],1070 nM
same,TGI,[4],2340 nM
same,GI50,[6],282 nM
same,TGI,[6],1170 nM
same,GI50,[7],436 nM
same,TGI,[7],1680 nM
same,GI50,[8],927 nM
same,TGI,[8],2.38 µM
same,GI50,[9],2310 nM
same,TGI,[9],6.62 µM
same,GI50,[10],643 nM
same,TGI,[10],3.69 µM
same,GI50,[11],1720 nM
same,TGI,[11],3.33 µM
same,GI50,[12],1220 nM
same,TGI,[12],2.53 µM
same,GI50,[13],458 nM
same,TGI,[13],2650 nM
same,GI50,[14],1110 nM
same,TGI,[14],2.62 µM
same,GI50,[15],1.04 µM
same,TGI,[15],4 µM
same,GI50,[16],1160 nM
same,TGI,[16],2430 nM
same,GI50,[17],753 nM
same,TGI,[17],2660 nM
same,GI50,[18],1290 nM
same,TGI,[18],2740 nM
same,GI50,[19],1180 nM
same,TGI,[19],4.11 µM
same,GI50,[20],1520 nM
same,TGI,[20],3.06 µM
same,GI50,[21],3160 nM
same,TGI,[21],10.8 µM
same,GI50,[22],6.44 µM
same,TGI,[22],20.7 µM
same,GI50,[23],1260 nM
same,TGI,[23],7.8 µM
same,GI50,[24],528 nM
same,TGI,[24],1890 nM
same,GI50,[25],1470 nM
same,TGI,[25],3 µM
same,GI50,[26],1940 nM
same,TGI,[26],6.2 µM
same,GI50,[27],201 nM
same,TGI,[27],548 nM
same,GI50,[28],1410 nM
same,TGI,[28],3.76 µM
same,GI50,[29],1740 nM
same,TGI,[29],4.38 µM
same,GI50,[30],1750 nM
same,TGI,[30],3.59 µM
same,GI50,[31],1490 nM
same,TGI,[31],3.41 µM
same,GI50,[32],11.7 µM
same,TGI,[32],23.9 µM
same,GI50,[33],502 nM
same,TGI,[33],1910 nM
same,GI50,[34],643 nM
same,TGI,[34],2150 nM
same,GI50,[35],1770 nM
same,TGI,[35],3.97 µM
same,GI50,[36],1350 nM
same,TGI,[36],2630 nM
same,GI50,[37],962 nM
same,TGI,[37],2210 nM
same,GI50,[38],701 nM
same,TGI,[38],2.12 µM
same,GI50,[39],2510 nM
same,TGI,[39],12.9 µM
same,GI50,[40],0.521 µM
same,TGI,[40],8.45 µM
same,GI50,[42],1130 nM
same,TGI,[42],2560 nM
same,GI50,[43],1430 nM
same,TGI,[43],3 µM
same,GI50,[44],725 nM
same,TGI,[44],2100 nM
same,GI50,[45],1530 nM
same,TGI,[45],2.91 µM
same,GI50,[46],1460 nM
same,TGI,[46],2.83 µM
same,GI50,[47],424 nM
same,TGI,[47],1540 nM
same,GI50,[48],1500 nM
same,TGI,[48],3.18 µM
same,GI50,[49],1770 nM
same,TGI,[49],3.99 µM
same,GI50,[50],3.9 µM
same,TGI,[50],15.9 µM
same,GI50,[51],1660 nM
same,TGI,[51],3.12 µM
same,GI50,[57],1080 nM
same,TGI,[57],2390 nM
same,GI50,[52],1500 nM
same,TGI,[52],3.27 µM
same,GI50,[53],2380 nM
same,TGI,[53],7.34 µM
same,GI50,[54],1030 nM
same,TGI,[54],2190 nM
same,GI50,[55],336 nM
same,TGI,[55],1060 nM
same,GI50,[58],539 nM
same,TGI,[58],2450 nM
same,GI50,[56],1400 nM
same,TGI,[56],2.89 µM

# Source: PubChem BioAssay (NCI)
